Test results published in patent EP0401517A1, “Substituted 2-alkynylphenols with anti-inflammatory action, a process for their preparation and pharmaceutical compositions thereof” (CAMILLO CORVI S.p.A., priority 1989, dated 1990).

Experiments:
5-lipo-oxygenase = biological target: T1, 5-lipo-oxygenase (Oryctolagus cuniculus, UniProt G1SNX0); assay: In vitro 5-lipo-oxygenase activity: formation of leukotriene B4 from [14C] arachidonic acid in calcium ionophore A23187 stimulated rabbit leukocytes (radiometric T.L.C. assay); assay type: cell-based; conditions: read-out: 5-LO (% of inhibition at 10 µM)
T1 construct: a preparation of calcium ionophore A23187 stimulated rabbit leukocites; endogenous in cells; host or cells: rabbit leukocytes
T1 sequence (G1SNX0 1-674): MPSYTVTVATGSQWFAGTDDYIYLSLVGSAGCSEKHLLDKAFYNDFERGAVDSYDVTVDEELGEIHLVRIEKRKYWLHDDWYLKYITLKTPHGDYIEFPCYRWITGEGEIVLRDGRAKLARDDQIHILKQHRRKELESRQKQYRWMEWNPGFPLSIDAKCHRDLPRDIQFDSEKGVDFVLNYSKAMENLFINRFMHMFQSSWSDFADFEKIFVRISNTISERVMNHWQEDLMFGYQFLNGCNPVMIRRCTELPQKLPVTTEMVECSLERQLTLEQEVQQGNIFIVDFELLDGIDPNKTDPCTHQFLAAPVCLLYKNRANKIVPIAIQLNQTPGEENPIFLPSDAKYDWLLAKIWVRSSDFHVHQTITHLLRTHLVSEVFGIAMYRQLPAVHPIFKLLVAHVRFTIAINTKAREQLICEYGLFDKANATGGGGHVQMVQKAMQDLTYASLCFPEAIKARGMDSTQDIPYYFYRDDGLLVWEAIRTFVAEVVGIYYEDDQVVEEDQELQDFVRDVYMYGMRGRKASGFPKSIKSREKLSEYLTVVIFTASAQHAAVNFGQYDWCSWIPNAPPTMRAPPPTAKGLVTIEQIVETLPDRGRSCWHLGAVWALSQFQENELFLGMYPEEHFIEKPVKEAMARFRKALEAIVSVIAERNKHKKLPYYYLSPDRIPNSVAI
Description: (§1) These new products are active in vitro as inhibitors of cyclo-oxygenase (malondialdehyde production test in guinea pig lung homogenates) and/or of the 5-lipo-oxygenase (A23187 stimulated rabbit leucocytes test).
The formation of leukotriene B₄ from [¹⁴C] arachidonic acid in a preparation of calcium ionophore A23187 stimulated rabbit leukocites is measured by means of a slightly modified radiometric T.L.C.assay based on published procedures (Beetens, J.R. et al. BIOCHEM. PHARMACOL 35 (6); 883, 1986).
(§2) In Table I below the results of the comparisons of 8 inventive compounds with 3 prior art compounds are shown. In column "CO" the data concerning cyclo-oxygenase, and in column "5-LO" those concerning 5-lipo-oxygenase are shown.

cyclo-oxygenase = assay: In vitro cyclo-oxygenase activity: malondialdehyde production in guinea pig lung homogenate incubated with arachidonic acid and cofactors; assay type: biochemical
Description: as §1
The cyclooxygenase activity is determined according to the method of Luzzani et al. (Luzzani, F., et al. INT. J. TISS. REAC. X(2); 79-83, 1988), by monitoring the production of malondialdehyde in a guinea pig lung homogenate incubated in the presence of arachidonic acid and cofactors.
as §2

inhibition at 10 µM (5-lipo-oxygenase) | CO (% of inhibition at 10 µM) (cyclo-oxygenase) | SMILES
68% | 0% | CC(C#Cc1ccccc1)c1cc(OCc2ccccc2)ccc1O (stereo not drawn) [CP/1864, 4-Benzyloxy-2-(4-phenyl-3-butyne-2-yl)phenol]
46% | 23% | COc1ccc(O)c(C(C)C#Cc2ccccc2)c1 (stereo not drawn) [CO/1863, 2-(4-Phenyl-3-butyne-2-yl)-4-methoxyphenol]
52% | 66% | COc1cccc(CC#Cc2ccccc2)c1O [CO/1826, 2-(3-Phenyl-2-propynyl)-6-methoxyphenol]
90% | 26% | Oc1cccc(CC#Cc2ccccc2)c1O [CO:1841, 3-(3-Phenyl-2-propynyl)pyrocatechol]

The next lines start with the molecule.

SMILES | inhibition at 10 µM (5-lipo-oxygenase) | CO (% of inhibition at 10 µM) (cyclo-oxygenase)
COc1ccc2c(c1)c(CC(=O)O)c(C)n2C(=O)c1ccc(Cl)cc1 [INDOMETHACIN, reference compound] | 0% | 98%
NC1=NN(c2cccc(C(F)(F)F)c2)CC1 [BW 755 c, reference compound] | 25% | 30%
CC(Cc1ccc(O)c(O)c1)C(C)Cc1ccc(O)c(O)c1 (stereo not drawn) [NORDIHYDROGUAIARETIC ACID, reference compound] | 92% | 5%
COc1ccc(O)c(CC#Cc2ccccc2)c1 [CO/1828, 2-(3-Phenyl-2-propynyl)-4-metoxyphenol] | 57% | 50%
CCCCCCC#CCc1cc(OC)ccc1O [CO/1837, 4-Methoxy-2-(2-nonynyl)phenol] | 92% | 52%
